Key:
neutrophils = assay: CD11b expression assay, neutrophil control for CRTH2 agonist activity; assay type: cell-based, human; details: leukocytes incubated with test compound 10 min at room temperature; flow cytometry
Description: CRTH2 agonists increase the expression of CD11b on eosinophils. […] They do, however, express receptors for other lipid mediators, including 5-oxo-6,8,11,14-eicosatetraenoic acid (5-oxo-ETE), leukotriene B4 (LTB4), and platelet activating factor. Therefore, any increased expression of CD11b by neutrophils is likely to be caused by an activity other than activation of CRTH2. Accordingly, preferred compounds increase CD11b expression on eosinophils, but not on neutrophils.
The potential CRTH2 agonist activity of certain compounds was tested using a CD11b expression assay using essentially the method described by Monneret et al. (J Pharmacol Exp Ther 304:349–55, 2003), and the results of this analysis are presented in FIG. 1 where the results of two separate experiments are reported.
Briefly, leukocytes (0.5 ml; 10^6/ml cells) in PBS containing 0.9 mM CaCl2 and 0.5 mM MgCl2) were incubated with a test compound at room temperature for 10 min. The incubations were terminated by the addition of ice-cold FACSFlow (BD Biosciences; Cat# 342003) and centrifugation (400 g for 5 min at 4° C.). […] The distribution of fluorescence intensities among 60,000 cells was measured by flow cytometry. Eosinophils were gated out on the basis of their granularity (high side scatter) and labeling with VLA-4 (PE fluorescence). CD11b was then measured in the eosinophil region on the basis of fluorescence due to FITC. […]

CCR3 = details: Stubbs et al. 2002, J Biol Chem 277:26012–26020; cited from earlier work

| Structure (SMILES) | expression of CD11b on neutrophils (neutrophils) | expression of CCR3, the receptor for eotaxin (CCR3) |
| --- | --- | --- |
| CCCCCC=CCC=CCC=CC=CC(=O)CCCC(=O)O [5-oxo-ETE, 5-oxo-6,8,11,14-eicosatetraenoic acid] | increased expression of CD11b on neutrophils |  |
| COc1ccc2c(c1)c(CC(=O)O)c(C)n2C(=O)c1ccc(Cl)cc1 [indomethacin] |  | reduces expression of CCR3 |

From patent publication US7205329B2, “Modulators of CRTH2 activity” (Microbia, Inc., priority 2003, dated 2007)
